# Experimental data: ChEMBL document CHEMBL5505982, “Design, synthesis, biological evaluation and in silico studies of novel quinoline derivatives as potential radioprotective molecules targeting the TLR2 and p53 pathways” (Eur J Med Chem, 2024)
# Activity calls are given as the source filed them. The calls are words filed in the database; no cut-off is given here.
# Legend:
# AHH-1 [1] = test: Induction of apoptosis in human AHH-1 cells assessed as late apoptotic cells preincubated with compound for 24 hrs followed by irradiation with 8 Gy and measured after 24 hrs of radiation by Annexin V-FITC/PI staining based flow cytometry analysis (reference value: 33.6%); format: functional; conditions: time 48 hrs
# AHH-1 [2] = test: Induction of apoptosis in human AHH-1 cells assessed as early apoptotic cells preincubated with compound for 24 hrs followed by irradiation with 8 Gy and measured after 24 hrs of radiation by Annexin V-FITC/PI staining based flow cytometry analysis (reference value: 16.5%); format: functional; conditions: time 48 hrs
# Mus musculus [3] = test: Radioprotective activity in C57BL/6J mouse assessed as increase in body weight at 30 mg/kg, ip preincubated with compound for 15 to 1440 mins followed by irradiation and measured after 10, 14, 18, 22 and 30 days; format: functional, organism-based; conditions: time 15-44640 min
# Mus musculus [4] = test: Radioprotective activity in C57BL/6J mouse model assessed as upregulation of G-CSF expression at 300 mg/kg, ip measured after 2 hrs of 7.5 Gy radiation by ELISA analysis; format: functional, organism-based
# Mus musculus [5] = test: Radioprotective activity in C57BL/6J mouse assessed as increase in WBC count at 300 mg/kg, ip preincubated with compound for 15 to 1440 mins followed by irradiation at 6.5 Gy and measured at 1 to 10 days relative to Ex/RAD/control; format: functional, organism-based
# Mus musculus [6] = test: Radioprotective activity in irradiated C57BL/6J mouse model assessed as increase in platelets count at 300 mg/kg, ip preincubated with compound for 15 to 1440 mins followed by irradiation with 6.5 Gy and measured after 14 days of radiation relative to Ex-rad/control; format: functional, organism-based; conditions: time 15-21600 min
# Mus musculus [7] = test: Radioprotective activity in C57BL/6J mouse assessed as survival rate at 30 mg/kg, ip preincubated with compound for 15 to 1440 mins followed by irradiation and measured at day 30; format: functional; conditions: light or radiation study, time 15-44640 min
# AHH-1 [8] = test: Induction of apoptosis in human AHH-1 cells assessed as early apoptotic cells preincubated with compound for 24 hrs followed by irradiation with 6 Gy and measured after 24 hrs of radiation by Annexin V-FITC/PI staining based flow cytometry analysis (reference value: 14.1%); format: functional; conditions: time 48 hrs
# Mus musculus [9] = test: Radioprotective activity in irradiated C57BL/6J mouse model assessed as increase in HGB count at 300 mg/kg, ip preincubated with compound for 15 to 1440 mins followed by irradiation with 6.5 Gy and measured after 13 days of radiation; format: functional, organism-based; conditions: time 15-20160 min
# Mus musculus [10] = test: Radioprotective activity in irradiated C57BL/6J mouse model assessed as increase in RBC count at 300 mg/kg, ip preincubated with compound for 15 to 1440 mins followed by irradiation with 6.5 Gy and measured after 13 days of radiation; format: functional, organism-based; conditions: Erythrocyte, time 15-20160 min
# AHH-1 [11] = test: Radioprotective activity against human AHH-1 cells assessed as decrease in p53 expression pretreated with compound for 24 hrs in presence of ionizing irradiation by Western blotting analysis; format: functional, cell-based
# Mus musculus [12] = test: Radioprotective activity in irradiated C57BL/6J mouse model assessed as increase in platelets count at 300 mg/kg, ip preincubated with compound for 15 to 1440 mins followed by irradiation with 6.5 Gy and measured after 3 to 10 days of radiation; format: functional, organism-based
# Mus musculus [13] = test: Radioprotective activity in irradiated C57BL/6J mouse model assessed as increase in WBC count at 300 mg/kg, ip preincubated with compound for 15 to 1440 mins followed by irradiation with 6.5 Gy and measured after 10 to 13 days of radiation relative to Ex-RAD/control; format: functional, organism-based
# AHH-1 [14] = test: Induction of apoptosis in human AHH-1 cells assessed as necrotic cells preincubated with compound for 24 hrs followed by irradiation with 8 Gy and measured after 24 hrs of radiation by Annexin V-FITC/PI staining based flow cytometry analysis (reference value: 4.86%); format: functional; conditions: time 48 hrs
# Mus musculus [15] = test: Radioprotective activity against radiation-induced intestinal injury C57BL/6J mouse model assessed as increase in number of crypt foci at 300 mg/kg, ip preincubated with compound for 15 to 1440 mins followed by irradiation with 13 Gy and measured after 84 hrs of radiation by H and E staining based analysis; format: functional, organism-based; conditions: time 15-6480 min
# Mus musculus [16] = test: Radioprotective activity in irradiated C57BL/6J mouse model assessed as increase in WBC count at 300 mg/kg, ip preincubated with compound for 15 to 1440 mins followed by irradiation with 6.5 Gy and measured on day 1 (reference value: 43.39%); format: functional; conditions: time 15-2880 min
# Mus musculus [17] = test: Radioprotective activity in irradiated C57BL/6J mouse model assessed as increase in RBC count at 300 mg/kg, ip preincubated with compound for 15 to 1440 mins followed by irradiation with 6.5 Gy and measured after 10 to 13 days of radiation; format: functional, organism-based; conditions: Erythrocyte
# Mus musculus [18] = test: Radioprotective activity in C57BL/6J mouse model assessed as upregulation of IL-12 expression at 300 mg/kg, ip measured after 2 hrs of 7.5 Gy radiation by ELISA analysis; format: functional, organism-based
# AHH-1 [19] = test: Induction of apoptosis in human AHH-1 cells assessed as viable cells preincubated with compound for 24 hrs followed by irradiation with 6 Gy and measured after 24 hrs of radiation by Annexin V-FITC/PI staining based flow cytometry analysis (reference value: 52.3%); format: functional; conditions: time 48 hrs
# AHH-1 [20] = test: Radioprotective activity against human AHH-1 cells assessed as decrease in Bax expression pretreated with compound for 24 hrs in presence of ionizing irradiation by Western blotting analysis; format: functional, cell-based
# AHH-1 [21] = test: Induction of apoptosis in human AHH-1 cells assessed as necrotic cells preincubated with compound for 24 hrs followed by irradiation with 4 Gy and measured after 24 hrs of radiation by Annexin V-FITC/PI staining based flow cytometry analysis (reference value: 1.06%); format: functional; conditions: time 48 hrs
# Toll-like receptor 2 [22] = target: T1, Toll-like receptor 2 (Homo sapiens, UniProt O60603); test: Agonist activity at TLR2 in human HUVEC cells assessed as increase in MyD88 level pretreated with compound for 24 hrs in presence of ionizing irradiation by Western blotting analysis; format: cell-based; conditions: filed as agonist
# T1 sequence (O60603 whole entry): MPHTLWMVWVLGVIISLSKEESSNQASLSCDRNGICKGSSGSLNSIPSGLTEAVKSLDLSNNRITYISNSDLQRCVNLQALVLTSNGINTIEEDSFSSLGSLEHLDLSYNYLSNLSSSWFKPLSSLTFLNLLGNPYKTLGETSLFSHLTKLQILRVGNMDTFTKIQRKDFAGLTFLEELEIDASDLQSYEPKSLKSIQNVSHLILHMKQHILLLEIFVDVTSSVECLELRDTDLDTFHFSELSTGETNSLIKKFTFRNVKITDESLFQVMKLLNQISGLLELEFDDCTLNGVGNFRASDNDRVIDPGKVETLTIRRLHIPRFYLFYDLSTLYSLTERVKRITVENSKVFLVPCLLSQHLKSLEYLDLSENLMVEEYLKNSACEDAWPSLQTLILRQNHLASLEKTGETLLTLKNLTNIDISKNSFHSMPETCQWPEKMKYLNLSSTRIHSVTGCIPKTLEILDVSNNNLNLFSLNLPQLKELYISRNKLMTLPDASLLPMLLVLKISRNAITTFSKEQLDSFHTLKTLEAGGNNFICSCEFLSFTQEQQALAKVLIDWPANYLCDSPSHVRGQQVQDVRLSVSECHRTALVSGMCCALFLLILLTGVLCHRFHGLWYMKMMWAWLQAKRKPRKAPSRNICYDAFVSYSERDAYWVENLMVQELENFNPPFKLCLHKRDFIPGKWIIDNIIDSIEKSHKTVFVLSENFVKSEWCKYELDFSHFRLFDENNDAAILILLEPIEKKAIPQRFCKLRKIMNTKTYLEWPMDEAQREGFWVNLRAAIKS
# Mus musculus [23] = test: Radioprotective activity against radiation-induced intestinal injury C57BL/6J mouse model assessed as increase in villi length at 300 mg/kg, ip preincubated with compound for 15 to 1440 mins followed by irradiation with 13 Gy and measured after 84 hrs of radiation by H and E staining based analysis; format: functional, organism-based; conditions: time 15-6480 min
# Mus musculus [24] = test: Radioprotective activity in irradiated C57BL/6J mouse model assessed as increase in HGB count at 300 mg/kg, ip preincubated with compound for 15 to 1440 mins followed by irradiation with 6.5 Gy and measured after 1 to 10 days of radiation; format: functional, organism-based
# Toll-like receptor 2 [25] = target: T1, Toll-like receptor 2; test: Binding affinity to TLR2 (unknown origin) assessed as dissociation constant by SPR analysis
# Toll-like receptor 2 [26] = target: T1, Toll-like receptor 2; test: Agonist activity at TLR2 in human HUVEC cells assessed as increase in p65 level pretreated with compound for 24 hrs in presence of ionizing irradiation by Western blotting analysis; format: cell-based; conditions: filed as agonist
# Mus musculus [27] = test: Radioprotective activity in C57BL/6J mouse model assessed as upregulation of IL-6 expression at 300 mg/kg, ip measured after 2 hrs of 7.5 Gy radiation by ELISA analysis; format: functional, organism-based
compound,measurement,setting,value
[O-][S+](Cc1ccc(F)cc1)c1ccc2cc(Br)ccc2n1 (configuration not stated),Activity,AHH-1 [1],17.8%
same,Activity,AHH-1 [2],10.8%
same,Activity,Mus musculus [3],Active
same,Activity,Mus musculus [4],Active
same,Activity,Mus musculus [5],Active
same,Activity,Mus musculus [6],Active
same,survival at 30 mg/kg,Mus musculus [7],80%
same,Activity,AHH-1 [8],13.7%
same,Activity,Mus musculus [9],Active
same,Activity,Mus musculus [10],Active
same,Activity,AHH-1 [11],Active
same,Activity,Mus musculus [12],inactive
same,Activity,Mus musculus [13],Active
same,Activity,AHH-1 [14],4%
same,Activity,Mus musculus [15],Active
same,Activity,Mus musculus [16],38.66%
same,Activity,Mus musculus [17],Active
same,Activity,Mus musculus [18],Active
same,Activity,AHH-1 [19],67.6%
same,Activity,AHH-1 [20],Active
same,Activity,AHH-1 [21],1.4%
same,Activity,Toll-like receptor 2 [22],Active
same,Activity,Mus musculus [23],Active
same,Activity,Mus musculus [24],inactive
same,Kd,Toll-like receptor 2 [25],3.56 µM
same,Activity,Toll-like receptor 2 [26],Active
same,Activity,Mus musculus [27],Active
